Measured values from patent US8481595B2, “Compounds for the treatment of metabolic disorders” (Wellstat Therapeutics Corporation, priority 2008, dated 2013).

System: db/db mice
Assay: Antidiabetic effects in db/db mice (serum chemistry after 2 weeks of daily oral dosing)
Assay type: in vivo
Text: Db/db mice have a defect in leptin signaling, leading to hyperphagia, obesity and diabetes. Moreover, unlike ob/ob mice on a C57BL/6J background, db/db mice on a C57BLKS background undergo failure of their insulin-producing pancreatic islet cells, resulting in progression from hyperinsulinemia (associated with peripheral insulin resistance) to hypoinsulinemic diabetes.
Male obese (db/db homozygote) C57BL/Ksola mice approximately 8 weeks of age, were obtained from Jackson Labs (Bar Harbor, Me.) and randomly assigned into groups of 5-7 animals such that the body weights (40-45 g) and serum glucose levels (≧300 mg/dl in fed state) were similar between groups; male lean (db/+heterozygote) mice served as cohort controls. A minimum of 7 days was allowed for adaptation after arrival. All animals were maintained under controlled temperature (23° C.), relative humidity (50±5%) and light (7:0-19:00), and allowed free access to standard chow (Formulab Diet 5008, Quality Lab Products, Elkridge, Md.) and water.
Mice received daily oral doses of vehicle or Compound DP (100 mg/kg/day) for 2 weeks. At the end of the treatment period 100 μl of venous blood was withdrawn in a heparinized capillary tube from the retro-orbital sinus for serum chemistry analysis.

[1] = db/db mice, after 2 weeks of daily oral dosing, 100 mg/kg/day

Cc1cccc(C)c1C(=O)Oc1cccc(C(=O)CCC(=O)O)c1 [Compound DP, 4-(3-(2,6-Dimethylbenzoyloxy)phenyl)-4-oxobutanoic acid]
reduction in serum glucose (in words) [1]: significant reduction
reduction in serum triglycerides (in words) [1]: significant reduction
Triglycerides (serum) (male db/db C57BL/Ksola mice, 100 mg/kg/day oral, 2 weeks, vehicle 388.0 ± 50.7, lean 96.4 ± 6.4, *p < 0.05 vs vehicle-control): 140.8 ± 20.6* mg/dL
Glucose (serum) (male db/db C57BL/Ksola mice, 100 mg/kg/day oral, 2 weeks, vehicle 752.9 ± 46.0, lean 212.6 ± 15.3, *p < 0.05 vs vehicle-control): 264.3 ± 96.8* mg/dL
